Results reported in PubChem BioAssay AID1259407 (Chemical Carcinogenesis Research Information System (CCRIS), 2018).
Activity calls are given as the source filed them. How the calls were made is not given here.

Tested on: CCRIS mutagenicity, Ames/micronucleus/aberration tests
Experiment: CCRIS mutagenicity studies
[1] = Test System: AMES SALMONELLA TYPHIMURIUM, Strain/Indicator: TA100, Metabolic Activation: NONE, Method: STANDARD PLATE
[2] = Test System: AMES SALMONELLA TYPHIMURIUM, Strain/Indicator: TA1535, Metabolic Activation: NONE, Method: STANDARD PLATE
[3] = Test System: E. COLI, Strain/Indicator: WP2, Metabolic Activation: NONE, Method: STANDARD PLATE
[4] = Test System: E. COLI, Strain/Indicator: WP2 UVRA, Metabolic Activation: NONE, Method: STANDARD PLATE
[5] = Test System: AMES SALMONELLA TYPHIMURIUM, Strain/Indicator: TA98, Metabolic Activation: NONE, Method: STANDARD PLATE

NNC(=O)c1ccncc1
mutagenic call (Test System: AMES SALMONELLA TYPHIMURIUM, Strain/Indicator: G46, Metabolic Activation: HAMSTER, LIVER, HOMOGENATE (HEAT-INACTIVATED), Method: PREINCUBATION): inactive; negative
mutagenic call (Test System: AMES SALMONELLA TYPHIMURIUM, Strain/Indicator: G46, Metabolic Activation: HAMSTER, LIVER, HOMOGENATE, Method: PREINCUBATION): active; positive
mutagenic call (Test System: AMES SALMONELLA TYPHIMURIUM, Strain/Indicator: G46, Metabolic Activation: MOUSE, LIVER, HOMOGENATE, Method: PREINCUBATION): active; positive
mutagenic call (Test System: AMES SALMONELLA TYPHIMURIUM, Strain/Indicator: G46, Metabolic Activation: NONE, Method: STANDARD PLATE): inactive; negative
mutagenic call (Test System: AMES SALMONELLA TYPHIMURIUM, Strain/Indicator: G46, Metabolic Activation: RAT, LIVER, HOMOGENATE, Method: PREINCUBATION): active; positive
mutagenic call (Test System: AMES SALMONELLA TYPHIMURIUM, Strain/Indicator: TA92, Metabolic Activation: NONE, Method: STANDARD PLATE): active; positive
mutagenic call (Test System: AMES SALMONELLA TYPHIMURIUM, Strain/Indicator: TA100, Metabolic Activation: MOUSE, LIVER, S-9, Method: STANDARD PLATE): inactive; negative
mutagenic call [1]: active; positive
mutagenic call (Test System: AMES SALMONELLA TYPHIMURIUM, Strain/Indicator: TA102, Metabolic Activation: RAT, LIVER, S-9, AROCLOR 1254, Method: STANDARD PLATE): inactive; negative
mutagenic call (Test System: AMES SALMONELLA TYPHIMURIUM, Strain/Indicator: TA1535, Metabolic Activation: HAMSTER, LIVER, HOMOGENATE (HEAT-INACTIVATED), Method: PREINCUBATION): inactive; negative
mutagenic call (Test System: AMES SALMONELLA TYPHIMURIUM, Strain/Indicator: TA1535, Metabolic Activation: HAMSTER, LIVER, HOMOGENATE, Method: PREINCUBATION): active; positive
mutagenic call (Test System: AMES SALMONELLA TYPHIMURIUM, Strain/Indicator: TA1535, Metabolic Activation: MOUSE, LIVER, HOMOGENATE, Method: PREINCUBATION): active; positive
mutagenic call (Test System: AMES SALMONELLA TYPHIMURIUM, Strain/Indicator: TA1535, Metabolic Activation: MOUSE, LIVER, POSTMITOCHONDRIAL SUPERNATANT, Method: PREINCUBATION): inactive; negative
mutagenic call (Test System: AMES SALMONELLA TYPHIMURIUM, Strain/Indicator: TA1535, Metabolic Activation: MOUSE, LIVER, S-9, Method: PREINCUBATION): inactive; negative
mutagenic call [2]: active; positive
mutagenic call (Test System: AMES SALMONELLA TYPHIMURIUM, Strain/Indicator: TA1535, Metabolic Activation: RAT, LIVER, HOMOGENATE, Method: PREINCUBATION): active; positive

NNCCO
mutagenic call [3]: active; positive
mutagenic call (Test System: E. COLI, Strain/Indicator: WP2, Metabolic Activation: RAT, LIVER, Method: STANDARD PLATE): active; positive
mutagenic call (Test System: E. COLI, Strain/Indicator: WP2HCR, Metabolic Activation: NONE, Method: STANDARD PLATE): active; positive
mutagenic call (Test System: E. COLI, Strain/Indicator: WP2HCR, Metabolic Activation: S-9 MIX, Method: STANDARD PLATE): active; positive
mutagenic call [4]: active; positive

CC(=O)c1cccn1[N+](=O)[O-]
mutagenic call [5]: active; positive
mutagenic call (Test System: AMES SALMONELLA TYPHIMURIUM, Strain/Indicator: TA98, Metabolic Activation: RAT, LIVER, S-9, AROCLOR 1254, Method: STANDARD PLATE): active; positive
mutagenic call [1]: active; positive
mutagenic call (Test System: AMES SALMONELLA TYPHIMURIUM, Strain/Indicator: TA100, Metabolic Activation: RAT, LIVER, S-9, AROCLOR 1254, Method: STANDARD PLATE): active; positive

CC(C)OC(=O)/C(Cl)=C(/Cl)C=O
mutagenic call [1]: active; positive

CSCCC(=O)N1[C@@H](c2ccccc2O)SC[C@H]1C(=O)O
mutagenic call [5]: inactive; negative
mutagenic call [1]: inactive; negative
mutagenic call [2]: inactive; negative
mutagenic call (Test System: AMES SALMONELLA TYPHIMURIUM, Strain/Indicator: TA1537, Metabolic Activation: NONE, Method: STANDARD PLATE): inactive; negative
mutagenic call (Test System: AMES SALMONELLA TYPHIMURIUM, Strain/Indicator: TA1538, Metabolic Activation: NONE, Method: STANDARD PLATE): inactive; negative
mutagenic call [3]: inactive; negative
mutagenic call [4]: inactive; negative

c1cc2c3c(c1)ccc1cccc(c13)C1OC21 (stereo not given)
mutagenic call (Test System: CHINESE HAMSTER OVARY, Strain/Indicator: CHO (HGPRT)/6-THIOGUANINE, Metabolic Activation: NONE, Method: STANDARD PLATE): active; positive
mutagenic call (Test System: CHINESE HAMSTER OVARY, Strain/Indicator: CHO (HGPRT)/6-THIOGUANINE, Metabolic Activation: RAT, LIVER, S-9, AROCLOR 1254, Method: STANDARD PLATE): inactive; negative
mutagenic call (Test System: UDS RODENT HEPATOCYTES, Strain/Indicator: THY INCORP, Metabolic Activation: NONE, Method: AUTORADIOGRAPHY): active; positive

O=C(O)c1cccnc1Nc1cccc(C(F)(F)F)c1
mutagenic call [2]: inactive; negative

NCCCNCCCCNCCCN
mutagenic call (Test System: E. COLI, Strain/Indicator: WP2 UVRA (PKM101), Metabolic Activation: NONE, Method: STANDARD PLATE): inactive; negative
mutagenic call (Test System: E. COLI, Strain/Indicator: WP2 UVRA/OXYR (PKM101), Metabolic Activation: NONE, Method: STANDARD PLATE): inactive; negative

Cc1ccc(N)c(Cl)c1
mutagenic call (Test System: UDS RODENT HEPATOCYTES, Strain/Indicator: THY INCORP (NON-S-PHASE), Metabolic Activation: NONE, Method: AUTORADIOGRAPHY): active; positive
